Consider two compounds from paper PMC12441834, “Highly Potent and Subtype-Selective Sperm-Specific Potassium Channel SLO3 Inhibitors Display High Tissue Exposure in the Murine Female Reproductive Tract” (ACS Pharmacology & Translational Science, 2025).

Values joined by “and” are separate entries in the source; they are usually repeats but may differ in a detail not shown here. Equal entries are not always repeated. Where two headings read alike, the source gives them in different places.

Data set [1] in a line: Distribution ratio female reproductive organs versus plasma after IV dosing. In kind it is in vivo. As to conditions: C57Bl/6, mouse, female mice, 1 mg/kg IV; for Kp at 0.25 h: reproductive organs / plasma. As for the experimental part:
Samples were analyzed via electrospray ionization (ESI) LC-MS/MS on an AB Sciex 4500 (Foster City, CA) triple-quadrupole instrument that was coupled with an Agilent 1290 Infinity Binary Pump and multisampler (Santa Clara, CA) and concentrations (ng/mL or ng/g) were determined using a matrix-matched 10-point standard curve and then converted to nM concentrations. Quantitation of compounds was performed via AB Sciex Multiquant software using the raw analyte:IS peak area ratios. The typical detection range was 0.5 ng/mL to ≥5000 ng/mL utilizing a quadratic equation regression with 1/x² weighting. Correction for dilution of all tissue samples was performed postquantitation. The corrections for dilution in the extraction buffer employed correction factors specific to each tissue weight.
In-life phase–Compounds were formulated in PEG400:DMSO (4:1, v/v) at a concentration of 1 mg/mL and administered as a single 1 mg/kg dose (1 mL/kg) to female C57Bl/6 mice (n = 2–4; 30 g body weight) via intravenous (i.v.) injection. Blood samples were collected serially from a surgically implanted carotid artery catheter in each animal over multiple postadministration time points (0.25, 0.5, 1, 3, 6, and 24 h) into chilled, K2EDTA anticoagulant-fortified tubes and immediately placed on wet ice. The blood samples were stored at −80 °C until analysis by LC-MS/MS.
At the same time points, female reproductive organs were obtained by rapid dissection, rinsed with PBS, pooled by lots of 2 and immediately frozen in individual tissue collection boxes (dry ice). All tissues and blood samples were stored at −80 °C until analysis by LC-MS/MS.

Data set [2] can be described thus: Multispecies hepatocyte MetID. Type of data set: in vitro ADME, human. The conditions noted are these: 4 h incubation with hepatocytes, 10 μM. As for the experimental part: Metabolites were identified after preincubating each compound at a 10 μM final concentration with 2.5 × 10^5 hepatocytes from human, dog, cynomolgus monkey, and rat in 200 μL of Optiincubate buffer (BioIVT, Westbury, NY). […] After centrifugation, 60 μL of the supernatant was transferred to 60 μL of water for LC-MS analysis. Samples were analyzed using a Thermo Scientific Vanquish UHPLC consisting of a VH-P10-A pump, a VH-A10-A sampler module, a VH-C10-A column compartment, and the VF-D11-A UV detector coupled to an Orbitrap Fusion Lumos instrument with UVPD. A binary solvent system consisting of (A) water with 0.1% formic acid and (B) acetonitrile with 0.1% formic acid was used with an Accucore Vanquish C18+, 2.1 mm × 100 mm, 1.5 μm, UHPLC column maintained at 40 °C. The data generated by data-dependent acquisition via normal acquisition and AcquireX were processed manually with Thermo Scientific FreeStyle and assisted by Compound Discoverer 3.3.1.111 to aid in the structural assignments.

[3] abbreviates: female reproductive organs (pooled), pooled organs, read-out: Reproductive Organs concentration.
The mark [4] stands for this setting: plasma, read-out: Plasma concentration.

Regarding `O=C(c1ccc(OCc2ccc(OC(F)(F)F)cc2)cc1)N1CCN(c2ccc(C(F)(F)F)cn2)CC1` [VU6032735], the concentration at 0.25 h in data set [1] (setting [3]) worked out at 1070 ng/mL; in data set [1] (setting [4]), 85.3 ng/mL. Moreover, the partition ratio (Kp) – broadly, tissue or fluid exposure divided by exposure in the circulation – at 0.25 h in data set [1] is 12.7. Also, the “% of Parent Related Material, Human” value in data set [2] was over 98%.

`Cc1cc(Cl)cc2sc(O[C@H]3CCN(C(=O)CCCS(=O)(=O)c4cccc(Br)c4)C[C@H]3F)nc12` [VU6047606]: the concentration at 0.25 h in data set [1] (setting [3]) amounted to 56.6 ng/mL; in data set [1] (setting [4]), 121 ng/mL. The Kp at 0.25 h in data set [1] came out at 0.47. Besides, the “% of Parent Related Material, Human” value in data set [2] is 91.66% and > 82%.
